Results as given in patent US20170008928A1, “NOVEL PEPTIDES AND PEPTIDE DERIVATIVES AND USES THEREOF” (Novo Nordisk A/S, priority 2015, published 2017).
Where two headings read alike, the source gives them in different places. Starred links: 1 amine or outer side, 2 acyl side, 3 side chain; linkers in the order of their positions; H or OH if unused. Non-standard residues stand in square brackets, D forms with d. Residues, ends and D or L forms follow the SMILES beside them. *: point of attachment. Phe(4-CH2SO3H) = N[C@@H](Cc1ccc(CS(=O)(=O)O)cc1)C(=O)O; sY = N[C@@H](Cc1ccc(OS(=O)(=O)O)cc1)C(=O)O; C18 diacid = O=C(O)CCCCCCCCCCCCCCCCC(=O)*; γGlu = O=C(O)[C@H](CCC(=O)[*:2])N[*:1]; Met(O2) = CS(=O)(=O)CC[C@H](N)C(=O)O; NMeF = CN[C@@H](Cc1ccccc1)C(=O)O; dNMeD = CN[C@H](CC(=O)O)C(=O)O; Nle = CCCC[C@H](N)C(=O)O; AEEA = NCCOCCOCC(=O)O

Assays:
[1] = target: T1, human cholecystokinin-2 receptor (CCK-2R) (Homo sapiens, UniProt P32239); test: In vitro receptor binding to CCK-2R, SPA displacement of [125I]-CCK-8s from plasma membranes
T1 construct: host or cells: 1321-N1 cells (plasma membranes prepared by Evotec AG Hamburg)
T1 sequence (P32239 1-447): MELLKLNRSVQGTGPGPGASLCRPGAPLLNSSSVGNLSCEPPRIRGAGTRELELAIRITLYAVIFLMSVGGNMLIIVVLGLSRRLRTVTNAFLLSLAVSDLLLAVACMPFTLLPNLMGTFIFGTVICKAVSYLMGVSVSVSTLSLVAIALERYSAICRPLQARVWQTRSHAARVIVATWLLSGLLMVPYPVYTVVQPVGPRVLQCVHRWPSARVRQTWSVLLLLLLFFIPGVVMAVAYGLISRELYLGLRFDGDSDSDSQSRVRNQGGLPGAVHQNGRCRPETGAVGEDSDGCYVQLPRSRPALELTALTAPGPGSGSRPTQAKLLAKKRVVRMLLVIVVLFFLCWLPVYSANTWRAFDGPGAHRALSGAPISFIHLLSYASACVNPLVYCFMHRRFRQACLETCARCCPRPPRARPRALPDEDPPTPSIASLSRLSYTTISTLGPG

[2] = target: T1, human cholecystokinin-2 receptor (CCK-2R); test: In vitro potency on CCK-2R, whole cell functional assay (IP1 accumulation, IP-One HTRF); type: cell-based
[3] = target: T2, human cholecystokinin-1 receptor (CCK-1R) (Homo sapiens, UniProt P32238); test: In vitro potency on CCK-1R, whole cell functional assay (IP1 accumulation, IP-One HTRF); type: cell-based
T2 construct: host or cells: 1321-N1 cells
T2 sequence (P32238 1-428): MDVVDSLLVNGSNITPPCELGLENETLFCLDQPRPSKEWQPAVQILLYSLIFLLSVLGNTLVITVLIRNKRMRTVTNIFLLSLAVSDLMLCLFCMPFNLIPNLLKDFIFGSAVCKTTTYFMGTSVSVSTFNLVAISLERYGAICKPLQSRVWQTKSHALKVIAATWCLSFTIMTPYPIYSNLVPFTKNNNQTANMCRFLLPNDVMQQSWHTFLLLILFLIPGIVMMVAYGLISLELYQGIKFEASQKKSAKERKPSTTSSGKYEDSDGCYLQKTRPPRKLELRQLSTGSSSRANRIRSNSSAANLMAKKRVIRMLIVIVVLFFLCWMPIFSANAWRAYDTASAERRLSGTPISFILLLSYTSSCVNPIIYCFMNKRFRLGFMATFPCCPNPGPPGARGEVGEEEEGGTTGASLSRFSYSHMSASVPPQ

[4] = 1321-N1 cells stably expressing CCK-2R, IP1 accumulation, highest dose tested 1×10^6 pM, read-out: EC50 (CCK-2R)
[5] = 1321-N1 cells stably expressing CCK-1R, IP1 accumulation, average of min. three replicates, read-out: EC50 (CCK-1R)
[6] = displacement of [125I]-CCK-8s, plasma membranes of 1321-N1 cells expressing CCK-2R, highest dose tested 1×10^7 pM, read-out: IC50 (CCK-2R)

SMILES | IC50 [1] | EC50 [2, 4] | EC50 [3, 5] | IC50 [1, 6] | EC50 [2] | EC50 [3]
CC(C)C[C@H](NC(=O)[C@H](Cc1ccc(OS(=O)(=O)O)cc1)NC(=O)[C@H](CC(=O)O)NC(=O)COCCOCCNC(=O)COCCOCCNC(=O)CC[C@H](NC(=O)CCCCCCCCCCCCCCCCC(=O)O)C(=O)O)C(=O)NCC(=O)N[C@@H](Cc1c[nH]c2ccccc12)C(=O)N[C@@H](CCS(C)(=O)=O)C(=O)N(C)[C@H](CC(=O)O)C(=O)N(C)[C@@H](Cc1ccccc1)C(N)=O [Example 12, 2-[2-[2-[[2-[2-[2-[[(4S)-4-Carboxy-4-(17-carboxyheptadecanoylamino)butanoyl]amino]ethoxy]ethoxy]acetyl]amino]ethoxy]ethoxy]acetyl-Asp-sTyr-Leu-Gly-Trp-Met(O2)-DMeAsp-MePhe-amide] ({C18 diacid-γGlu-AEEA-AEEA}-D[sY]LGW[Met(O2)][dNMeD][NMeF]-NH2) | > 10000 nM | > 1000 nM | 0.14 nM |  |  | 
CCCC[C@H](NC(=O)[C@H](Cc1c[nH]c2ccccc12)NC(=O)CNC(=O)[C@H](CCCNC(=N)N)NC(=O)[C@H](Cc1ccc(OS(=O)(=O)O)cc1)NC(=O)[C@H](CC(=O)O)NC(=O)COCCOCCNC(=O)COCCOCCNC(=O)CC[C@H](NC(=O)CCCCCCCCCCCCCCCCC(=O)O)C(=O)O)C(=O)N(C)[C@H](CC(=O)O)C(=O)N(C)[C@@H](Cc1ccccc1)C(N)=O [Example 17, 2-[2-[2-[[2-[2-[2-[[(4S)-4-Carboxy-4-(17-carboxyheptadecanoylamino)butanoyl]amino]ethoxy]ethoxy]acetyl]amino]ethoxy]ethoxy]acetyl-Asp-sTyr-Arg-Gly-Trp-Nle-DMeAsp-MePhe-amide] ({C18 diacid-γGlu-AEEA-AEEA}-D[sY]RGW[Nle][dNMeD][NMeF]-NH2) |  | 270 nM | 0.21 nM | 880 nM |  | 
CCCC[C@H](NC(=O)[C@H](Cc1ccc(CS(=O)(=O)O)cc1)NC(=O)[C@@H](N)CC(=O)O)C(=O)NCC(=O)N[C@@H](Cc1c[nH]c2ccccc12)C(=O)N[C@@H](CCCC)C(=O)N(C)[C@H](CC(=O)O)C(=O)N(C)[C@@H](Cc1ccccc1)C(N)=O [Example 55, Asp-Phe(4-sulfomethyl)-Nle-Gly-Trp-Nle-DMeAsp-MePhe-amide] (H-D[Phe(4-CH2SO3H)][Nle]GW[Nle][dNMeD][NMeF]-NH2) |  | > 1000 nM | 0.25 nM | > 10000 nM |  | 
CCCC[C@H](NC(=O)[C@H](Cc1c[nH]c2ccccc12)NC(=O)CNC(=O)[C@H](CC(C)C)NC(=O)[C@H](Cc1ccc(OS(=O)(=O)O)cc1)NC(=O)[C@@H](N)CC(=O)O)C(=O)N(C)[C@H](CC(=O)O)C(=O)N[C@@H](Cc1ccccc1)C(N)=O [Example 58, Asp-sTyr-Leu-Gly-Trp-Nle-DMeAsp-Phe-amide] |  | > 1000 nM | 0.21 nM | > 10000 nM |  | 
CC(C)C[C@H](NC(=O)[C@H](Cc1ccc(OS(=O)(=O)O)cc1)NC(=O)[C@@H](N)CC(=O)O)C(=O)NCC(=O)N[C@@H](Cc1c[nH]c2ccccc12)C(=O)N[C@@H](CC(C)C)C(=O)N(C)[C@H](CC(=O)O)C(=O)N(C)[C@@H](Cc1ccccc1)C(N)=O [Example 64, Asp-sTyr-Leu-Gly-Trp-Leu-DMeAsp-MePhe-amide] | > 10000 nM |  |  |  | > 1000 nM | 0.25 nM
CCCC[C@H](NC(=O)[C@H](Cc1c[nH]c2ccccc12)NC(=O)CNC(=O)[C@@H]1CCCN1C(=O)[C@H](Cc1ccc(OS(=O)(=O)O)cc1)NC(=O)[C@@H](N)CC(=O)O)C(=O)N(C)[C@H](CC(=O)O)C(=O)N(C)[C@@H](Cc1ccccc1)C(N)=O [Example 69, Asp-sTyr-Pro-Gly-Trp-Nle-DMeAsp-MePhe-amide] (H-D[sY]PGW[Nle][dNMeD][NMeF]-NH2) |  | > 1000 nM | 0.19 nM | > 10000 nM |  | 
CCCC[C@H](NC(=O)[C@H](Cc1c[nH]c2ccccc12)NC(=O)CNC(=O)[C@H](CC(C)C)NC(=O)[C@H](Cc1ccc(OS(=O)(=O)O)cc1)NC(=O)[C@@H](N)CCC(=O)O)C(=O)N(C)[C@H](CC(=O)O)C(=O)N(C)[C@@H](Cc1ccccc1)C(N)=O [Example 77, Glu-sTyr-Leu-Gly-Trp-Nle-DMeAsp-MePhe-amide] (H-E[sY]LGW[Nle][dNMeD][NMeF]-NH2) |  | 920 nM | 0.21 nM | > 10000 nM |  | 
CCCC[C@H](NC(=O)[C@H](Cc1c[nH]c2ccccc12)NC(=O)CNC(=O)[C@H](CO)NC(=O)[C@H](Cc1ccc(OS(=O)(=O)O)cc1)NC(=O)[C@@H](N)CC(=O)O)C(=O)N(C)[C@H](CC(=O)O)C(=O)N(C)[C@@H](Cc1ccccc1)C(N)=O [Example 79, Asp-sTyr-Ser-Gly-Trp-Nle-DMeAsp-MePhe-amide] (H-D[sY]SGW[Nle][dNMeD][NMeF]-NH2) |  | > 1000 nM | 0.19 nM |  |  | 
CCCC[C@H](NC(=O)[C@H](Cc1c[nH]c2ccccc12)NC(=O)CNC(=O)[C@H](C)NC(=O)[C@H](Cc1ccc(OS(=O)(=O)O)cc1)NC(=O)[C@@H](N)CC(=O)O)C(=O)N(C)[C@H](CC(=O)O)C(=O)N(C)[C@@H](Cc1ccccc1)C(N)=O [Example 80, Asp-sTyr-Ala-Gly-Trp-Nle-DMeAsp-MePhe-amide] (H-D[sY]AGW[Nle][dNMeD][NMeF]-NH2) |  | > 1000 nM | 0.16 nM | > 10000 nM |  | 
